# Experimental data taken from article PMC6005348, “Betahistine Treatment in a Cat Model of Vestibular Pathology: Pharmacokinetic and Pharmacodynamic Approaches” (Frontiers in Neurology, 2018).
# System: unilateral vestibular neurectomized cats (UVN)
# Assay: Support surface measurement: recovery of static posture after unilateral vestibular neurectomy
# Assay type: in vivo, cat
# Details: for Normalized posture area: DAY 2 of treatment, pre-operative value = 1, control 4.6
# Protocol: We have previously described the surgery for vestibular neurectomy ([35]). “Adult male cats weighing 4–5 kg were anesthetized with ketamine (20 mg/kg, i.m.; Rhône Poulenc, Mérieux, France), received an analgesic (Tolfenamic acid: tolfedine, 0.5 ml, i.m.; Vetoquinol, Lure, France) and were kept at physiological body temperature using a blanket. The vestibular nerve was sectioned on the left-side at the post-ganglion level in order to leave the auditory division intact after mastoidectomy, partial destruction of the bony labyrinth, and surgical exposure of the internal auditory canal. Animals were maintained under antibiotics for 7 days and analgesics for 3 days.”
# One […] group (N = 4: cats 10–13) was submitted to a UVN and received post-operatively a vehicle (placebo group). Two groups of cats were treated with betahistine at the lower dose of 0.2 mg/kg/day (N = 3: cats 14–16) or at the higher dose of 2 mg/kg/day (N = 3: cats 17–19). Another group of cats received the combination of both betahistine at 0.2 mg/kg/day plus selegiline at the dose of 1 mg/kg/day (N = 3: cats 20–22).
# Placebo treatment was pursued until full recovery of posture control in the control group, that is, 40 days on average. The same post-lesion period was investigated in the three experimental groups receiving betahistine or betahistine + selegiline.
# We have described in previous papers how posture deficits and recovery were evaluated ([21]). The surface delimited by the four legs of the cat was measured while standing erect at rest, without walking. “Support surface is considered a good estimate of postural control since it reflects the cat's behavioral adaptation to compensate the static vestibulospinal deficits induced by the vestibular lesion. […] To quantify the support surface, cats were placed in a device with a graduated transparent floor that allowed them to be photographed from underneath. Five repeated measurements were done for each cat tested at each post-operative time, and an average was calculated for each experimental session. The support surface was measured as the surface delimited by the four legs by an image analysis system (Canvas, 9^TM, Deneba software, Miami, FL). Post-lesion data were compared to pre-lesion values by using individual references, each animal being its own control. Recovery of static posture function was assessed by the changes and development of the support surface over time. The recovery was considered as total when the support surface returned to the pre-operative value (unity, i.e., 1).”
# Statistical analysis consisted of an ANOVA to test for changes at the different post-lesion days (2, 4, 6, 10, 15, 20, 25, 30, 35, 40 days) for the support surface in each group of cats. Repeated-measure analysis of variance was used to test (1) the effects of betahistine treatment (controls vs. treated cats), (2) the effects of the betahistine dose (0.2 vs. 2 mg/kg), and (3) the effects of additional selegiline on the lowest betahistine dose (0.2 mg/kg betahistine + 1 mg/kg selegiline).
# ANOVA was followed by post-hoc analysis (Scheffe-test and multicomparison Fisher's test: Statview II software). Results were considered significant at P < 0.05. To distinguish between chronic and early effects of betahistine treatment a Two-way-ANOVA with day and treatment as discriminating factors was performed (GraphPad Prism 5.0). The Cohen's d-value (two means differences/largest standard deviation) was evaluated to test the size effect.
structure (smiles),measurement,setting,value
"CNCCc1ccccn1 [Betahistine, betahistine]",Post-lesion day (D+) of complete recovery of posture,"2 mg/kg betahistine group, earlier than controls",10
same,"Cohen's d, control versus treatment (support surface)","Betahistine (0.2 mg), D+2",0.657
same,"Cohen's d, control versus treatment (support surface)","Betahistine (0.2 mg), D+4",3.289
same,"Cohen's d, control versus treatment (support surface)","Betahistine (0.2 mg), D+6",2.510
same,"Cohen's d, control versus treatment (support surface)","Betahistine (0.2 mg), D+10",2.708
same,"Cohen's d, control versus treatment (support surface)","Betahistine (0.2 mg), D+15",4.224
same,"Cohen's d, control versus treatment (support surface)","Betahistine (0.2 mg), D+20",2.064
same,"Cohen's d, control versus treatment (support surface)","Betahistine (0.2 mg), D+25",2.870
same,"Cohen's d, control versus treatment (support surface)","Betahistine (0.2 mg), D+30",5.146
same,"Cohen's d, control versus treatment (support surface)","Betahistine (0.2 mg), D+40",-1.447
same,"Cohen's d, control versus treatment (support surface)","Betahistine (2 mg), D+2",2.662
same,"Cohen's d, control versus treatment (support surface)","Betahistine (2 mg), D+4",3.616
same,"Cohen's d, control versus treatment (support surface)","Betahistine (2 mg), D+6",2.799
same,"Cohen's d, control versus treatment (support surface)","Betahistine (2 mg), D+10",5.398
same,"Cohen's d, control versus treatment (support surface)","Betahistine (2 mg), D+15",7.246
same,"Cohen's d, control versus treatment (support surface)","Betahistine (2 mg), D+20",13.857
same,"Cohen's d, control versus treatment (support surface)","Betahistine (2 mg), D+25",8.478
same,"Cohen's d, control versus treatment (support surface)","Betahistine (2 mg), D+30",6.512
same,"Cohen's d, control versus treatment (support surface)","Betahistine (2 mg), D+40",3.320
same,Normalized posture area,BH 0.2 mg/kg,3.98
same,Normalized posture area,BH 2.0 mg/kg,2.4
same,Difference from controls with respect to complete time of recovery (ANOVA),"betahistine 0.2 mg/kg, P < 0.15",did not significantly differed
same,"Support surface versus untreated cats, Bonferroni post-test","betahistine 0.2 mg/kg, p < 0.01, first week only",significant differences at the particular D+4 and D+6 time delays
same,Complete time of recovery of posture,"betahistine 0.2 mg/kg, same as controls",around 6 weeks
same,Difference from controls with respect to complete time of recovery (ANOVA),"betahistine 2 mg/kg, P < 0.026",differed significantly
